According to publication PMC8351955, “Targeting Mycobacterium tuberculosis response to environmental cues for the development of effective antitubercular drugs” (PLoS Biology, 2021):
Where “and” joins values, the source holds several entries; their conditions need not be identical. Identical values can stand only once. Like-named read-outs stand apart in the source and are kept apart here.

Legend:
[1] = test system: Mtb growth in J774 macrophage-like cells; assay: J774 infection in 96-well plates, mKO fluorescence 6 days post-infection; type: cell-based, Mycobacterium tuberculosis; conditions: for Inhibition of Mtb growth in J774 cells: 10 μM, 6 days post-infection; for % Growth: Fig. 2D, DMSO = 100
Description: For J774 infection in 96-well plates, 1.8 × 10^5 J774 cells were seeded per well in 180 μl of J774 infection media 1 day prior to infection. On the day of the assay, log-phase Mtb constitutively expressing mKO were pelleted and resuspended in 1 ml basal uptake buffer, passed 6× through a tuberculin syringe with a 25 G × 5/8″ needle, then resuspended in J774 infection media to a final OD600 = 0.2. Media was removed from 96-well plate containing the J774 cells, with 140 μl of fresh J774 infection media added back to each well. A volume of 40 μl of the Mtb suspension at OD600 = 0.2 was added to each well, followed by addition of appropriate concentration of compound or DMSO in a 20-μl final volume in J774 infection media (compound final concentration 10 μM, rifampicin final concentration 5 μM, DMSO final concentration 0.1%/well). Bacterial mKO fluorescence was read immediately after infection using a Biotek Synergy Neo2 microplate reader (bottom read monochromator, excitation 543/10 nm, emission 565/10 nm), and again 6 days post-infection. Plates were kept in humidified ziplock bags in a 37°C, 5% CO2 incubator. mKO fluorescence in DMSO-treated control samples were defined as 100% growth, and fluorescence observed in treatment conditions calculated as a percentage from that set value.

[2] = test system: WT Mtb (Erdman) in primary murine BMDMs; assay: Primary murine bone marrow-derived macrophage infection, CFU; type: cell-based, Mycobacterium tuberculosis; conditions: for Effect on bacterial load / Mtb growth in primary murine BMDMs: 10 μM, 8-day infection time course, vs DMSO; for CFU/ml: Fig. 2E, 10 µM
Description: C57BL/6J wild-type mice (Jackson Laboratories) were used for extraction of BMDMs. Cells were harvested and expanded in DMEM containing 10% FBS, 15% L-cell conditioned media, 2 mM L-glutamine, 1 mM sodium pyruvate, and penicillin/streptomycin as needed in a 37°C incubator in a 5% CO2 atmosphere. […] Macrophages were lysed with water containing 0.01% sodium dodecyl sulfate and a dilution series of the samples plated on 7H10 agar for CFU determination.

[3] = test system: CDC1551(rv2390c′::GFP) reporter Mtb strain; conditions: for Normalized % induction: Fig. 2C, DMSO = 100; for Ability to increase rv2390c′::GFP reporter signal in high [Cl−]: pH 7
[4] = test system: Mtb; assay: Mtb growth assay in cholesterol medium (OD600); conditions: for Inhibition of Mtb growth in cholesterol media: 10 μM, OD600 over 12 days; for OD600: Fig. 2G
Description: (§1) Bacterial growth was tracked by measuring OD600 every 3 days for 12 days. […] Bacterial growth was tracked by measurement of OD600 every 3 days over 12 days.

[5] = test system: Mtb CDC1551; assay: Intrabacterial drug accumulation assay (LC-MS); conditions: 24-hour exposure, 7H9 pH 7 ± 250 mM NaCl
[6] = test system: Mtb; assay: Mtb growth assay in standard 7H9 medium (OD600); conditions: Fig. 2F
Description: as §1

[7] = test system: J774 cells; assay: Intracellular drug accumulation assay in J774 cells (LC-MS); conditions: for Intracellular accumulation in J774 cells: 24 hours; for nmol/106 cells: Fig. 3F
[8] = test system: Mtb-infected J774 cells; conditions: for nmol/106 cells: Fig. 3F
[9] = test system: CDC1551(rv2390c′::GFP) reporter Mtb strain, response to high [Cl−]; assay: microbe, parasite or virus in culture; type: cell-based, Mycobacterium tuberculosis; conditions: primary screen, 10 µM
[10] = test system: Mtb growth in cholesterol media; set-up: method as in PubChem AID 1259343; conditions: ref PubChem AID 1259343; cited from earlier work

Row | Compound | Inhibition of Mtb growth in J774 cells [1] | % Growth ([1]; average of 4 replicates) | % Growth ([1]; individual replicates) | Effect on bacterial load / Mtb growth in primary murine BMDMs [2] | Normalized % induction ([3]; average of 3 replicates) | Normalized % induction ([3]; individual replicates) | Ability to increase rv2390c′::GFP reporter signal in high [Cl−] [3] | Inhibition of Mtb growth in cholesterol media [4] | OD600 ([4]; day 3, average) | OD600 ([4]; day 3, individual replicates) | OD600 ([4]; day 6, average) | OD600 ([4]; day 6, individual replicates) | OD600 ([4]; day 9, average) | OD600 ([4]; day 9, individual replicates) | OD600 ([4]; day 12, average) | OD600 ([4]; day 12, individual replicates) | OD600 ([6]; day 3, average) | OD600 ([6]; day 3, individual replicates) | OD600 ([6]; day 6, average) | OD600 ([6]; day 6, individual replicates) | further results
1 | COc1ncc(CN2CCN(c3nc4ccccc4o3)CC2)cn1 [JSF-4271, 2-(4-((2-methoxypyrimidin-5-yl)methyl)piperazin-1-yl)benzo[d]oxazole] | loss of the ability to inhibit Mtb growth | 107.949% | 101.522% and 116.46% and 111.935% and 101.878% | loss of the ability to inhibit Mtb growth | 98.3426% | 93.208% and 98.8641% and 102.956% | lost the ability | no longer inhibited Mtb growth | 0.1 | 0.1 | 0.28 | 0.3 (2×) and 0.24 | 0.4467 | 0.46 (2×) and 0.42 | 0.52 | 0.52 and 0.5 and 0.54 | 0.2 | 0.2 and 0.22 and 0.18 | 0.4067 | 0.42 (2×) and 0.38 | CFU/ml ([2]; day 2, average): 489333 CFU/ml; CFU/ml ([2]; day 2, individual replicates): 446000 CFU/ml and 482000 CFU/ml and 540000 CFU/ml; CFU/ml ([2]; day 4, average): 960000 CFU/ml; CFU/ml ([2]; day 4, individual replicates): 1040000 CFU/ml and 1100000 CFU/ml and 740000 CFU/ml; CFU/ml ([2]; day 6, average): 2286667 CFU/ml; CFU/ml ([2]; day 6, individual replicates): 1960000 CFU/ml and 2060000 CFU/ml and 2840000 CFU/ml; CFU/ml ([2]; day 8, average): 6800000 CFU/ml; CFU/ml ([2]; day 8, individual replicates): 6000000 CFU/ml and 5400000 CFU/ml and 9000000 CFU/ml; Intrabacterial accumulation in Mtb [5]: decreased accumulation; OD600 ([6]; day 9, average): 0.5267; OD600 ([6]; day 9, individual replicates): 0.54 (2×) and 0.5; OD600 ([6]; day 12, average): 0.6733; OD600 ([6]; day 12, individual replicates): 0.68 (2×) and 0.66; Intracellular accumulation in J774 cells [7]: minimal accumulation; Accumulation in Mtb-infected J774 cells ([8]; 10 μM, 24 hours, 5 days post-infection): minimal accumulation
2 | c1ccc2oc(N3CCN(Cc4cncnc4)CC3)nc2c1 [JSF-4297, 2-(4-(pyrimidin-5-ylmethyl)piperazin-1-yl)benzo[d]oxazole] | loss of the ability to inhibit Mtb growth | 108.514% | 102.242% and 116.384% and 110.602% and 104.828% | loss of the ability to inhibit Mtb growth | 100.379% | 88.9158% and 107.146% and 105.074% | lost the ability | no longer inhibited Mtb growth | 0.09333 | 0.1 (2×) and 0.08 | 0.3133 | 0.32 (2×) and 0.3 | 0.4533 | 0.46 (2×) and 0.44 | 0.5 | 0.48 and 0.5 and 0.52 | 0.1933 | 0.18 (2×) and 0.22 | 0.4 | 0.4 and 0.42 and 0.38 | OD600 ([6]; day 9, average): 0.5467; OD600 ([6]; day 9, individual replicates): 0.56 (2×) and 0.52; OD600 ([6]; day 12, average): 0.7; OD600 ([6]; day 12, individual replicates): 0.7 and 0.72 and 0.68; Intracellular accumulation in J774 cells [7]: no detectable accumulation; nmol/106 cells ([7]; Experiment 1 - J774, average): 0 nmol/106 cells; nmol/106 cells ([7]; Experiment 1 - J774, individual replicates): 0 nmol/106 cells; nmol/106 cells ([7]; Experiment 2 - J774, average): 0 nmol/106 cells; nmol/106 cells ([7]; Experiment 2 - J774, individual replicates): 0 nmol/106 cells; nmol/106 cells ([7]; Experiment 3 - J774, average): 0 nmol/106 cells; nmol/106 cells ([7]; Experiment 3 - J774, individual replicates): 0 nmol/106 cells; nmol/106 cells ([8]; Experiment 1 - Mtb-infected J774, average): 0.006771 nmol/106 cells; nmol/106 cells ([8]; Experiment 1 - Mtb-infected J774, individual replicates): 0.007341 nmol/106 cells and 0.006486 nmol/106 cells (2×); nmol/106 cells ([8]; Experiment 2 - Mtb-infected J774, average): 0.007288 nmol/106 cells; nmol/106 cells ([8]; Experiment 3 - Mtb-infected J774, average): 0.039 nmol/106 cells; nmol/106 cells ([8]; Experiment 3 - Mtb-infected J774, individual replicates): 0.03001 nmol/106 cells and 0.048 nmol/106 cells
3 | c1ccc2oc(N3CCN(Cc4ccc(C5CCCO5)s4)CC3)nc2c1 (stereo not shown) [PubChem SID: 340463409, reference compound] | – | – | – | – | – | – | – | – | – | – | – | – | – | – | – | – | – | – | – | – | Dysregulation of Mtb Cl− response in original rv2390c′::GFP screen [9]: did not demonstrate dysregulation; Call in screen for inhibition of Mtb growth in cholesterol media [10]: having antitubercular activity in cholesterol media
